Source: the NIST ThermoML archive (doi:10.1016/j.jct.2010.06.008)

Assay: xn = mol fraction of the nth substance listed
Settings: 101 kPa, Liquid; for speed of sound: Sing-around technique in a fixed-path interferometer; for mass density: Vibrating tube method

CCC(C)Cl (configuration not stated) [2-chlorobutane] + CCCCCC
Settings | mass density, 283.15 K [kg/m3] | mass density, 298.15 K [kg/m3] | mass density, 313.15 K [kg/m3] | speed of sound, 283.15 K [m/s] | speed of sound, 298.15 K [m/s] | speed of sound, 313.15 K [m/s]
x2 = 0 | 884.34 | 867.474 | 850.266 | 1127.7 | 1066.2 | 1005.3
x2 = 0.0509 | 870.642 | 853.976 | 836.967 | 1126.4 | 1064.5 | 1003.3
x2 = 0.1002 | 857.772 | 841.229 | 824.438 | 1125.2 | 1063.1 | 1001.6
x2 = 0.1802 | 837.449 | 821.198 | 804.693 | 1124 | 1061.4 | 999.26
x2 = 0.3029 | 807.817 | 791.981 | 775.929 | 1123.1 | 1059.7 | 996.75
x2 = 0.4045 | 784.524 | 769.021 | 753.339 | 1123.4 | 1059.3 | 995.71
x2 = 0.4991 | 763.875 | 748.682 | 733.339 | 1124.5 | 1059.8 | 995.56
x2 = 0.5974 | 743.353 | 728.495 | 713.496 | 1126.5 | 1061.1 | 996.3
x2 = 0.6992 | 723.059 | 708.519 | 693.898 | 1129.5 | 1063.4 | 998
x2 = 0.7996 | 704.031 | 689.807 | 675.523 | 1133.3 | 1066.8 | 1000.8
x2 = 0.8981 | 686.218 | 672.305 | 658.349 | 1138.3 | 1071.1 | 1004.5
x2 = 0.9477 | 677.555 | 663.793 | 650.005 | 1141.4 | 1073.7 | 1006.9
